Data reported in PubChem BioAssay AID248 (DTP/NCI, 2004).
Where “and” joins values, the source holds several entries; their conditions need not be identical. Identical values can stand only once. Inconclusive results and toxic doses are left out. No stated cut-off is given here; in the data, active means T/C of 150% or more; inactive means T/C below 125%.

Tested on: L1210 leukemia ip in BDF1 mice, survival T/C
Test: NCI In Vivo Anticancer Drug Screen. Data for tumor model L1210 Leukemia (intraperitoneal) in B6D2F1 (BDF1) mice
Conditions: endpoint: mean survival time, higher = longer survival
Summary of the method: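 Antitumor effect is assessed in tumor-bearing animals. Survival in the compound arm is compared with a vehicle-dosed control arm and expressed as their quotient.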

[1] = dose: 100.0 mg/kg/injection, schedule: Q01DX009 (ip), vehicle: Klucel (hydroxypropylcellulose) (HPC)
[2] = dose: 100.0 mg/kg/injection, schedule: Q04DX003 (ip), vehicle: Klucel (hydroxypropylcellulose) (HPC)
[3] = dose: 200.0 mg/kg/injection, schedule: Q01DX009 (ip), vehicle: Klucel (hydroxypropylcellulose) (HPC)
[4] = dose: 200.0 mg/kg/injection, schedule: Q04DX003 (ip), vehicle: Klucel (hydroxypropylcellulose) (HPC)
[5] = dose: 400.0 mg/kg/injection, schedule: Q01DX009 (ip), vehicle: Klucel (hydroxypropylcellulose) (HPC)
[6] = dose: 400.0 mg/kg/injection, schedule: Q04DX003 (ip), vehicle: Klucel (hydroxypropylcellulose) (HPC)
[7] = dose: 100.0 mg/kg/injection, schedule: Q04DX002 (ip), vehicle: Klucel (hydroxypropylcellulose) (HPC)
[8] = dose: 200.0 mg/kg/injection, schedule: Q04DX002 (ip), vehicle: Klucel (hydroxypropylcellulose) (HPC)
[9] = dose: 400.0 mg/kg/injection, schedule: Q04DX002 (ip), vehicle: Klucel (hydroxypropylcellulose) (HPC)
[10] = dose: 100.0 mg/kg/injection, schedule: Q04DX003 (ip), vehicle: saline
[11] = dose: 200.0 mg/kg/injection, schedule: Q04DX003 (ip), vehicle: saline
[12] = dose: 400.0 mg/kg/injection, schedule: Q04DX003 (ip), vehicle: saline
[13] = dose: 100.0 mg/kg/injection, schedule: Q01DX001 (ip), vehicle: saline
[14] = dose: 200.0 mg/kg/injection, schedule: Q01DX001 (ip), vehicle: saline
[15] = dose: 400.0 mg/kg/injection, schedule: Q01DX001 (ip), vehicle: saline
[16] = dose: 100.0 mg/kg/injection, schedule: Q01DX009 (ip), vehicle: saline
[17] = dose: 200.0 mg/kg/injection, schedule: Q01DX009 (ip), vehicle: saline
[18] = dose: 400.0 mg/kg/injection, schedule: Q01DX009 (ip), vehicle: saline
[19] = dose: 100.0 mg/kg/injection, schedule: Q01DX001 (ip), vehicle: saline with Tween-80
[20] = dose: 200.0 mg/kg/injection, schedule: Q01DX001 (ip), vehicle: saline with Tween-80
[21] = dose: 400.0 mg/kg/injection, schedule: Q01DX001 (ip), vehicle: saline with Tween-80
[22] = dose: 25.0 mg/kg/injection, schedule: Q01DX009 (ip), vehicle: water
[23] = dose: 50.0 mg/kg/injection, schedule: Q01DX009 (ip), vehicle: water
[24] = dose: 100.0 mg/kg/injection, schedule: Q01DX009 (ip), vehicle: water
[25] = dose: 50.0 mg/kg/injection, schedule: Q04DX003 (ip), vehicle: saline

Measured: T/C

O=C(Nc1ccc(S(=O)(=O)Nc2ccc(N=Nc3ccc(N=Nc4ccccc4)cc3)cc2)cc1)C(N1CC1)(N1CC1)N1CC1
inactive: dose: 15.0 mg/kg/injection, schedule: Q01DX001 (ip), vehicle: saline 104 % of control | dose: 30.0 mg/kg/injection, schedule: Q01DX001 (ip), vehicle: saline 117 % of control | dose: 60.0 mg/kg/injection, schedule: Q01DX001 (ip), vehicle: saline 102 % of control

O=[N+]([O-])c1ccc(C(Cl)C2(Br)C=c3ccccc3=C2)cc1 (stereo not drawn)
inactive: [1] 103 % of control | [2] 105 % of control | [3] 98 % of control | [4] 94 % of control | [5] 95 % of control | [6] 97 % of control

Cc1cc(C)cc(OCC#CCN(C)c2ccccc2)c1
inactive: [7] 99 % of control | [8] 99 % of control | [9] 96 % of control

O=CC(CO)C(C=O)n1ncc2ccccc21 (stereo not drawn)
inactive: dose: 50.0 mg/kg/injection, schedule: Q01DX005 (ip), vehicle: water 112 % of control

CC1(C)NC(=O)NC(=O)C1Br (stereo not drawn)
inactive: dose: 100.0 mg/kg/injection, schedule: Q01DX Z (ip), vehicle: methylcellulose (MC) 96 % of control

S=P(Nc1ccccc1)(Nc1ccccc1)Nc1ccccc1
inactive: dose: 50.0 mg/kg/injection, schedule: Q01DX009 (ip), vehicle: Klucel (hydroxypropylcellulose) (HPC) 96 % of control | [1] 98 % of control | [3] 98 % of control

CNC(=O)C1C2CCC(C2)C1C(=O)NC (stereo not drawn)
inactive: dose: 75.0 mg/kg/injection, schedule: Q04DX003 (ip), vehicle: saline 97 % of control | [10] 96 % of control | dose: 150.0 mg/kg/injection, schedule: Q04DX003 (ip), vehicle: saline 95 % of control | [11] 96 % of control | dose: 300.0 mg/kg/injection, schedule: Q04DX003 (ip), vehicle: saline 97 % of control | [12] 96 % of control

CC(=O)Nc1ccc(NS(=O)(=O)O)cc1
inactive: dose: 50.0 mg/kg/injection, schedule: Q01DX001 (ip), vehicle: saline 96 % of control | [13] 96 % of control | [14] 93 % of control | [15] 96 % of control

CCCCCCCC(CC(=O)O)OC(=O)CC(CCCCCCC)OC1OC(C)C(O)C(O)C1OC1OC(C)C(O)C(O)C1O (stereo not drawn)
inactive: [7] 102 % of control | [8] 102 % of control

O=[N+]([O-])c1ccc(/C=C/c2ccccc2Cl)cc1
inactive: [1] 97 % of control | [2] 109 % of control | [3] 97 % of control | [4] 104 % of control | [5] 101 % of control | [6] 107 % of control

CC(C)(C)C1CCC(Br)C(Cl)C1 (stereo not drawn)
inactive: [16] 98 % of control | [17] 105 % of control | [18] 100 % of control

c1ccc([Si](c2ccccc2)(c2cccs2)c2cccs2)cc1
inactive: dose: 100.0 mg/kg/injection, schedule: Q01DX009 (ip), vehicle: saline with Tween-80 103 % of control | dose: 200.0 mg/kg/injection, schedule: Q01DX009 (ip), vehicle: saline with Tween-80 95 % of control

CC(=O)NCCc1[nH]cnc1N=Nc1ccc(Br)cc1
inactive: [19] 96 % of control | [20] 96 % of control | [21] 94 % of control

Cc1ccc([N+](=O)[O-])cc1NC(=O)Nc1cccc(F)c1
inactive: dose: 6.25 mg/kg/injection, schedule: Q01DX009 (ip), vehicle: Klucel (hydroxypropylcellulose) (HPC) 93 % of control | dose: 12.5 mg/kg/injection, schedule: Q01DX009 (ip), vehicle: Klucel (hydroxypropylcellulose) (HPC) 87 % of control | dose: 25.0 mg/kg/injection, schedule: Q01DX009 (ip), vehicle: Klucel (hydroxypropylcellulose) (HPC) 92 % of control | [5] 86 % of control

O=S(=O)(F)c1cc(Cl)cc(Cl)c1O
inactive: dose: 100.0 mg/kg/injection, schedule: Q04DX002 (ip), vehicle: other 93 % of control | dose: 200.0 mg/kg/injection, schedule: Q04DX002 (ip), vehicle: other 93 % of control | dose: 400.0 mg/kg/injection, schedule: Q04DX002 (ip), vehicle: other 104 % of control

COc1ccccc1CC=O
inactive: [13] 102 % of control | [14] 103 % of control | [15] 97 % of control

CCCCNC(=O)c1ncccc1C(=O)O
inactive: dose: 100.0 mg/kg/injection, schedule: Q01DX001 (ip), vehicle: carboxymethylcellulose (CMC) 111 % of control | dose: 100.0 mg/kg/injection, schedule: Q04DX003 (ip), vehicle: carboxymethylcellulose (CMC) 102 % of control | dose: 200.0 mg/kg/injection, schedule: Q01DX001 (ip), vehicle: carboxymethylcellulose (CMC) 103 % of control | dose: 200.0 mg/kg/injection, schedule: Q04DX003 (ip), vehicle: carboxymethylcellulose (CMC) 95 % of control | dose: 400.0 mg/kg/injection, schedule: Q01DX001 (ip), vehicle: carboxymethylcellulose (CMC) 97 % of control

CC1(C)C2CC3C(C(=O)O)C(C(=O)O)CCC3(C2)C1OC=O (stereo not drawn)
inactive: [2] 99 % of control | [4] 92 % of control | [6] 103 % of control

Clc1ccc(-c2cc(=[N+]3CCC4(CC3)SSC3(CC[N+](=c5cc(-c6ccc(Cl)cc6)ss5)CC3)S4)ss2)cc1 (stereo not drawn)
inactive: [22] 90 % of control | [23] 90 % of control | [24] 88 % of control | dose: 400.0 mg/kg/injection, schedule: Q01DX009 (ip), vehicle: water 87 % of control

O=C(Cl)OC12CC3CC(CC(C3)C1)C2
inactive: dose: 100.0 mg/kg/injection, schedule: Q01DX001 (ip), vehicle: Klucel (hydroxypropylcellulose) (HPC) 95 % of control | dose: 100.0 mg/kg/injection, schedule: Q01DX009 (ip), vehicle: other 105 % of control | dose: 200.0 mg/kg/injection, schedule: Q01DX001 (ip), vehicle: Klucel (hydroxypropylcellulose) (HPC) 97 % of control | dose: 200.0 mg/kg/injection, schedule: Q01DX009 (ip), vehicle: other 105 % of control | dose: 400.0 mg/kg/injection, schedule: Q01DX001 (ip), vehicle: Klucel (hydroxypropylcellulose) (HPC) 100 % of control | dose: 400.0 mg/kg/injection, schedule: Q01DX009 (ip), vehicle: other 105 % of control

Cc1ccc(C(=O)Nc2ccc(OCCCc3c(N)nc(N)nc3N)cc2)cc1S(=O)(=O)F
inactive: dose: 25.0 mg/kg/injection, schedule: Q04DX003 (ip), vehicle: Klucel (hydroxypropylcellulose) (HPC) 103 % of control | dose: 50.0 mg/kg/injection, schedule: Q04DX003 (ip), vehicle: Klucel (hydroxypropylcellulose) (HPC) 97 % of control | [2] 103 % of control

C(=N/Sc1ccccc1)/c1ccccc1
inactive: [7] 98 % of control | [8] 98 % of control | [9] 112 % of control

COCCNCCOC
inactive: [25] 106 % of control | [16] 103 % of control | [10] 100 % of control | [17] 98 % of control | [11] 122 % of control | [18] 104 % of control | [12] 103 % of control

COC(=O)C(C)C1CCC2C3=CC=C4CC(OC(C)=O)CCC4(C)C3CCC21C (stereo not drawn)
inactive: [19] 93 % of control | [20] 98 % of control | [21] 104 % of control

O=C(CCC(=O)c1ccccc1)c1ccccc1
inactive: [19] 100 % of control | [20] 98 % of control | [21] 95 % of control

CS(=O)c1ncc2cnccn12 (stereo not drawn)
inactive: [22] 100 % of control | dose: 25.0 mg/kg/injection, schedule: Q04DX003 (ip), vehicle: saline 107 % of control | [23] 99 % of control | [25] 113 % of control | [24] 102 % of control and 103 % of control | [10] 107 % of control | dose: 100.0 mg/kg/injection, schedule: Q04DX003 (ip), vehicle: water 110 % of control | dose: 200.0 mg/kg/injection, schedule: Q01DX009 (ip), vehicle: water 98 % of control
